For one sequence, EC50 results are on record in US6770456B1, “Endogenous retrovirus tumor associated nucleic acids and antigens” (Ludwig Institute for Cancer Research, priority 1998, dated 2004).

The assay deals with AVL3-EBV B cells. The experiment in a line: Peptide sensitization of EBV-transformed B cells to lysis by CTL 13 (51Cr release). Type of assay: cell-based, human. The following applies: 51Cr-labeled cells incubated 30 min at 20° C. with peptide; effector:target 5:1; chromium release after 4 hr; read-out: half-maximal effect for sensitizing AVL3-EBV B cells to lysis by CTL clone 13. Here is the method: Sensitivity of target cells to lysis by the CTL was evaluated by a standard ^51Cr-release assay over 4 hr. Some lysis assays were performed in the presence of the following murine monoclonal antibodies: BB7.2, an IgG2b anti-HLA-A2 (from the ATCC), and OKM1, an IgG2b anti-CD11b (from the ATCC).
One of them, MLAVISCAV (SEQ ID NO:9), was contained within an open reading frame starting with an initiation codon preceeded by a canonical Kozak consensus sequence. This peptide sensitized AVL3-EBV B cells to lysis by CTL clone 13, with an half-maximal effect at 5 nM (FIG. 4). ^51Cr-labeled EBV-transformed B cells from patient AVL3 were incubated for 30 min at 20° C. with the indicated concentrations of peptide. CTL 13 were then added at an effector:target ratio of 5:1, and chromium release was measured after 4 hr.

Regarding MLAVISCAV, the EC50 was 5 nM.
